# Data taken from patent US20150031541A1 (priority 2012, published 2015).
# System: Plasmopara viticola
# Experiment: Plasmopara viticola/Grape/Curative (Grape Downy Mildew)
# Format: in vivo
# Conditions: 200 ppm; grape seedlings cv. Gutedel, inoculated one day before application; compared to untreated
# Description: Plasmopara viticola/Grape/Curative (Grape Downy Mildew)
# 5-week-old grape seedlings cv. Gutedel are inoculated by spraying a sporangia suspension on their lower leaf surface one day before application. The inoculated grape plants are sprayed in a spray chamber with the formulated test compound diluted in water. The inoculated test plants are incubated at 22° C. and 100% rh in a greenhouse and the percentage leaf area covered by disease is assessed when an appropriate level of disease appears on untreated check plants (4-6 days after application).
structure (smiles),measurement,value
"CSC1CN(C(=O)Cn2nc(C(F)F)cc2C(F)F)CCC1c1nc(C2=NOC(c3c(F)cccc3F)C2)cs1 (stereo not shown) [I.az.223, 2-[3,5-bis(difluoromethyl)pyrazol-1-yl]-1-[4-[4-[5-(2,6-difluorophenyl)-4,5-dihydroisoxazol-3-yl]thiazol-2-yl]-3-methylsulfanyl-1-piperidyl]ethanone]",disease control,at least 80%
